# Test results as given in patent publication US20210299044A1, “SYSTEMS AND METHODS FOR DELIVERY OF DRUGS AND OTHER SUBSTANCES COMPRISING DEEP EUTECTIC SOLVENTS” (Novilla Pharmaceuticals, Inc., priority 2018, published 2021).
# Key:
# [1] = values stated in description, no method given; cited from earlier work
# [2] = Hydrolysis of aspirin in choline chloride/urea deep eutectic solvent, determined using HPLC; assay type: physicochemical
# Description: In this example, an aspirin formulation was prepared using choline chloride and urea. In this example, choline chloride was heated in an oven at 65° C. for 10 hours. Then, 1 part choline chloride (by volume) was added to 2 parts urea in a beaker. The beaker was sealed with parafilm and the choline chloride and urea allowed to mix to form a deep eutectic solvent (DES). Next, the mixture was passed through a 4A 8-12 mesh molecular sieve, and stirred overnight, to form anhydrous DES.
# 50 mg/ml of aspirin was then added to the DES. […] The hydrolysis was determined using HPLC.
# It is believed that heating the choline chloride removes water.
"aspirin found to have hydrolyzed ([2]; 50 mg/ml aspirin in anhydrous DES (1 part choline chloride : 2 parts urea by volume), choline chloride heated at 65° C. for 10 hours, molecular sieve, HPLC) [%]","aspirin found to hydrolyze ([2]; comparison: choline chloride and urea mixed without heating the choline chloride, same procedure otherwise)",SMILES,pKa [1]
,,CN(C)CCc1c[nH]c2ccc(CS(=O)(=O)N3CCCC3)cc12 [almotriptan],8.77
1,over 8%,"CC(=O)Oc1ccccc1C(=O)O [aspirin, acetylsalicylic acid]",
,,CN[C@@H]1CCc2[nH]c3ccc(C(N)=O)cc3c2C1 [frovatriptan],17.27
